Assays:
MOLM13 = assay: CellTiter-Blue cell viability, MOLM13; type: cell-based; details: Homo sapiens, MOLM-13; AML cell line, 72 hours
Procedure: (§1) The anti-cancer efficacy of exemplary compounds of the application were assessed in vitro against different cancer cell lines. Cell viability was examined following treatment at various concentrations of inhibitor (0.097656-50 μM) using a CellTiter-Blue® cell viability assay. 1×10^4 cells/well were plated in 96-well assay plates in culture medium. All cells were grown in DMEM, IMDM and RPMI-1640 supplemented with 10% fetal bovine serum (FBS). In some instances, FBS was removed for periods ranging from 16-24 hours, and re-introduced with test compound addition. After 24 hrs, test compounds and vehicle controls were added to appropriate wells such that the final volume was 100 μl in each well. The cells were cultured for the desired test exposure period (72 hours) at 37° C. and 5% CO2. The assay plates were removed from 3° C. incubator and 20 μl/well of CellTiter-Blue® Reagent was added. The plates were incubated using standard cell culture conditions for 1-4 hours. Afterwards, the plates were shaken for 10 seconds and florescence was recorded at 560/590 nm using a Cytation 3 spectrophotometer. IC50 values were determined using non-linear regression analysis with GraphPad Prism 6.0 (GraphPad Software Inc.).

[1] = system: UFMylation pathway (UBA5, UFC1, UFM1, c-Myc) in MV4-11 cells; assay: Western blot of UFMylation pathway in MV4-11 cells; type: cell-based; details: 8 hours, 0 to 1 μM
Procedure: Post-treatment (8 hours) of MV4-11 cells with I-1 test compound at 1, 0.5, 0.25, 0.1 and 0 μM concentrations, all cells were lysed with radioimmunoprecipitation assay (RIPA) buffer: 20 mM Tris pH 7.4, 150 mM NaCl, 0.5% deoxycholate, 1% Triton X-100, 0.1% sodium dodecyl sulfate (SDS). Total protein was measured using BCA assay (Sigma). In each assay, clarified protein were resolved on a 4%-15% polyacrylamideSDS gel and transferred to a PVDF membrane (Bio-Rad). The membranes were blocked with 5% solution of skim milk powder in TBST and incubated for at least 1 hour followed by an overnight incubation at 4° C. in primary antibody (1:1000 dilution). Blots were probed with antibodies against UBA5, UFM1, UFC1, c-Myc, and beta-actin was used as a loading control (Santa Cruz Biotechnology catalog # sc-835). The PVDF membrane then washed with TBST (3 times for 5 minutes). A horseradish peroxides (HRP)-conjugated goat anti-mouse IgG secondary antibodies (Cell signaling Catalog #7076S) was applied to the membrane (1:5000 dilution) and incubated for 1 hour at room temperature. The blots were then rinsed again 3 times in TBST for 10 minutes. Bands were visualized using clarity western ECL substrate luminal/enhancer solution and peroxide solution 1:1 ratio for HRP secondary antibody, according to the manufacturer's instructions (Bio-Rad) and analyzed using Image lab software (Bio-Rad).

[2] = system: primary human fibroblast cells (PHF); assay: CellTiter-Blue cell viability, PHF; type: cell-based; details: non-cancerous, 72 hours
Procedure: as §1

MV4-11 = assay: CellTiter-Blue cell viability, MV4-11; type: cell-based; details: for IC50: Homo sapiens, MV4-11, AML cell line, 72 hours
Procedure: as §1

[3] = system: healthy keratinocyte cells (HaCaT); assay: CellTiter-Blue cell viability, HaCaT; type: cell-based; details: Homo sapiens, non-cancerous, 72 hours
Procedure: as §1

[4] = system: healthy human lung cells (MRC9); assay: CellTiter-Blue cell viability, MRC9; type: cell-based; details: non-cancerous, 72 hours
Procedure: as §1

[5] = Intrinsic clearance in mouse hepatocytes
ATCC3034 = assay: Cell viability, medulloblastoma ATCC3034; type: cell-based; details: medulloblastoma cell line
Procedure: as §1, with “Inc.). […]” for “Inc.).”

D458 = assay: Cell viability, medulloblastoma D458; type: cell-based; details: medulloblastoma cell line
Procedure: as §1, with “Inc.). […]” for “Inc.).”

D425 = assay: Cell viability, medulloblastoma D425; type: cell-based; details: medulloblastoma cell line
Procedure: as §1, with “Inc.). […]” for “Inc.).”

BT428 = assay: Proliferation of patient derived GBM BTIC line BT428; type: cell-based; details: 62.5, 125, 250 nM, four days
Procedure: (§2) Glioblastoma (GBM) tumor cells with stem-cell properties termed brain tumor initiating cells (BTICs,) are enriched using serum-free culture. Effects of select exemplary compounds were tested on cell proliferation in patient derived GBM BTIC lines: GBM8 and BT428. GBM BTICs were cultured in NeuroCult™ NS-A Proliferation Medium (STEMcell Technologies) supplemented with epidermal growth factor (20 ng/mL), basic fibroblast growth factor (10 ng/mL) and 2 ug/mL of Heparin. The cells were dissociated into single cells and viable cells sorted into 96 well plate at a density of 1000 cells/well. The cells were then treated with varying doses of selected compounds (250 nM, 125 nM, 62.5 nM) with three technical replicates per dilution. DMSO was used as control. Four days following the addition of compounds, the proliferative capacity of GBM BTICs was assessed using PrestoBlue Cell Viability reagent (Invitrogen).

GBM8 = assay: Proliferation of patient derived GBM BTIC line GBM8; type: cell-based; details: 62.5, 125, 250 nM, four days
Procedure: as §2

in vitro = details: mouse, hepatocytes

| IC50 (MOLM13) | IC50 (MV4-11) | SMILES | IC50 [2] | IC50 [4] | other results |
| --- | --- | --- | --- | --- | --- |
| 0.73 µM | 430 nM | O=S(=O)(c1c(F)c(F)c(F)c(F)c1F)N(Cc1ccc(F)cc1)C1CCC1 [Compound I-55, N-cyclobutyl-2,3,4,5,6-pentafluoro-N-(4-fluorobenzyl)benzenesulfonamide] | 2.5 µM |  | reduction of UBA5 levels and UFC1-UFM1 conjugate levels [1]: comparable activity to I-1 |
| 3.5 µM | 1370 nM | O=S(=O)(c1c(F)c(F)c(F)c(F)c1F)N(Cc1ccc(Cl)cc1)C1CC1 [Compound I-7, N-(4-chlorobenzyl)-N-cyclopropyl-2,3,4,5,6-pentafluorobenzenesulfonamide] | 2.7 µM | 16.4 µM | half-life at 1 μM [5]: 115 min; IC50 (ATCC3034): 300 nM; IC50 (D458): 2000 nM; IC50 (D425): 1400 nM |
| 4.2 µM | 1010 nM | CC(C)N(Cc1ccc(F)cc1F)S(=O)(=O)c1c(F)c(F)c(F)c(F)c1F [Compound I-49, N-(2,4-difluorobenzyl)-2,3,4,5,6-pentafluoro-N-isopropylbenzenesulfonamide] | 4.5 µM | 16.7 µM |  |
| 2.58 µM | 990 nM | N#Cc1ccc(CN(C2CC2)S(=O)(=O)c2c(F)c(F)c(F)c(F)c2F)cc1 [Compound I-23, N-(4-cyanobenzyl)-N-cyclopropyl-2,3,4,5,6-pentafluorobenzenesulfonamide] | 5.5 µM | 7.8 µM |  |
| 0.73 µM | 930 nM | COc1ccc(CN(C2CC2)S(=O)(=O)c2c(F)c(F)c(F)c(F)c2F)cc1 [Compound I-8, N-cyclopropyl-2,3,4,5,6-pentafluoro-N-(4-methoxybenzyl)benzenesulfonamide] |  |  | IC50 [3]: 17.4 µM |
| 1.6 µM | 850 nM | O=S(=O)(c1c(F)c(F)c(F)c(F)c1F)N(Cc1ccc(F)cc1)CC1CC1 [Compound I-2, N-(cyclopropylmethyl)-2,3,4,5,6-pentafluoro-N-(4-fluorobenzyl)benzenesulfonamide] | 2.9 µM | 7.7 µM |  |
| 4.11 µM | 1190 nM | CC(C)N(Cc1ccccc1F)S(=O)(=O)c1c(F)c(F)c(F)c(F)c1F [Compound I-48] | 3 µM | 15 µM |  |
| 3.5 µM | 1200 nM | CC(C)N(Cc1ccc(F)cc1)S(=O)(=O)c1c(F)c(F)c(F)c(F)c1F [Compound I-16, 2,3,4,5,6-pentafluoro-N-(4-fluorobenzyl)-N-isopropylbenzenesulfonamide] | 7.2 µM | 25 µM |  |

Continued, compound first:

| SMILES | IC50 (MOLM13) | IC50 (MV4-11) | IC50 [2] | IC50 [4] | other results |
| --- | --- | --- | --- | --- | --- |
| O=S(=O)(c1ccc(F)cc1)N(Cc1ccc(F)cc1)C1CC1 [Comparative Example 3, N-cyclopropyl-4-fluoro-N-(4-fluorobenzyl)benzenesulfonamide, reference compound] | > 25 µM | > 25000 nM |  | > 25 µM | activity in AML cells (MV4-11; AML cells (MV4-11 and MOLM13)): inactive; IC50 [3]: > 25 µM |
| O=S(=O)(c1c(F)c(F)c(F)c(F)c1F)N(Cc1ncccc1C(F)(F)F)C1CC1 [Compound I-43, N-cyclopropyl-2,3,4,5,6-pentafluoro-N-((3-(trifluoromethyl)pyridin-2-yl)methyl)benzenesulfonamide] | 4.1 µM | 1670 nM |  | 8.4 µM | effect on cell proliferation in BT428 (BT428): show potency |
| O=C(O)c1ccc(CN(C2CC2)S(=O)(=O)c2c(F)c(F)c(F)c(F)c2F)cc1 [Compound I-26, 4-(((N-cyclopropyl-2,3,4,5,6-pentafluorophenyl)sulfonamido)methyl)benzoic acid] | 1.9 µM | 1200 nM | 6.5 µM |  |  |
| NC(=O)c1ccc(CN(C2CC2)S(=O)(=O)c2c(F)c(F)c(F)c(F)c2F)cc1 [Compound I-20, 4-(((N-cyclopropyl-2,3,4,5,6-pentafluorophenyl)sulfonamido)methyl)benzamide] | 1.7 µM | 1050 nM | 4.9 µM |  |  |
| O=S(=O)(c1c(F)c(F)c(F)c(F)c1F)N(Cc1ccc(F)nc1)C1CC1 [Compound I-12, N-cyclopropyl-2,3,4,5,6-pentafluoro-N-((6-fluoropyridin-3-yl)methyl)benzenesulfonamide] | 3.07 µM | 1350 nM | 5 µM | 18 µM |  |
| O=S(=O)(c1c(F)c(F)c(F)c(F)c1F)N(Cc1ccc(F)cn1)C1CC1 [Compound I-13, N-cyclopropyl-2,3,4,5,6-pentafluoro-N-((5-fluoropyridin-2-yl)methyl)benzenesulfonamide] | 1.1 µM | 1700 nM | 5.5 µM | 25 µM |  |
| O=S(=O)(c1c(F)c(F)c(F)c(F)c1F)N(Cc1c(F)cc(F)cc1F)C1CC1 [Compound I-36, N-cyclopropyl-2,3,4,5,6-pentafluoro-N-(2,4,6-trifluorobenzyl)benzenesulfonamide] | 6.81 µM | 1520 nM | 8.1 µM | 26 µM |  |
| O=S(=O)(c1c(F)c(F)c(F)c(F)c1F)N(Cc1c(F)cc(F)cc1F)C1CCC1 [Compound I-47, N-cyclobutyl-2,3,4,5,6-pentafluoro-N-(2,4,6-trifluorobenzyl)benzenesulfonamide] | 8.4 µM | 1140 nM | 3.7 µM | 15.7 µM |  |
| O=S(=O)(c1c(F)c(F)c(F)c(F)c1F)N(Cc1ncc(F)cc1F)C1CC1 [Compound I-37, N-cyclopropyl-N-((3,5-difluoropyridin-2-yl)methyl)-2,3,4,5,6-pentafluorobenzenesulfonamide] | 2.89 µM | 1690 nM | 8.7 µM | 22 µM | effect on cell proliferation in GBM8 (GBM8): show potency |
| O=S(=O)(c1c(F)c(F)c(F)c(F)c1F)N(Cc1ccccc1F)C1CC1 [Compound I-40, N-cyclopropyl-2,3,4,5,6-pentafluoro-N-(2-fluorobenzyl)benzenesulfonamide] | 3.2 µM | 330 nM |  |  | reduction of UBA5 levels and UFC1-UFM1 conjugate levels [1]: comparable activity to I-1 |
| COc1ccc(NS(=O)(=O)c2c(F)c(F)c(F)c(F)c2F)cc1F [Batabulin] |  |  |  |  | half-life at 1 μM (in vitro): 17.9 min |
| O=S(=O)(c1c(F)c(F)c(F)c(F)c1F)N(Cc1ccc(C(F)(F)F)cc1)C1CC1 [Compound I-25, N-cyclopropyl-2,3,4,5,6-pentafluoro-N-(4-(trifluoromethyl)benzyl)benzenesulfonamide] | 1.05 µM | 950 nM | 3 µM |  |  |
